# Experiments:
# [1] = molecular target: T1, hSARM1 SAM-TIR (Homo sapiens, UniProt Q6SZW1); experiment: Base exchange reactions at neutral pH (HPLC); format: biochemical
# T1 construct: made in house
# T1 sequence (Q6SZW1 409-724): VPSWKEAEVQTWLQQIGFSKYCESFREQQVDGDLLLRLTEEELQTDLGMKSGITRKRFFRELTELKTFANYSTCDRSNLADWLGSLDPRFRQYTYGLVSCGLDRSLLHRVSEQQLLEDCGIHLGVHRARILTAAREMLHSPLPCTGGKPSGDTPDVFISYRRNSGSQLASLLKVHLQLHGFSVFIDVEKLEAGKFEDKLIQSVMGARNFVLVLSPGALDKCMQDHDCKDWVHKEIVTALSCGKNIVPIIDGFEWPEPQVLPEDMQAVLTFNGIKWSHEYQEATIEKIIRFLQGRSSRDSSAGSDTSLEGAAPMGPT
# Protocol: (§1) Multiple time stops from individual assays as above were analyzed for linearity, then extents of hydrolysis (white bars), cyclization (red bars), or base exchange (black bars) were calculated from each corresponding product as shown in Figure 1B and STAR methods. […] See also Figures S3–S5, and Table S1
# (§2) Rates were calculated as follows.
# [2] = molecular target: T2, Aplysia californica ADP ribosyl cyclase (Aplysia californica, UniProt P29241); experiment: Base exchange reactions at neutral pH (HPLC); format: biochemical; design: purchased Merck A8950
# T2 sequence (P29241 25-282): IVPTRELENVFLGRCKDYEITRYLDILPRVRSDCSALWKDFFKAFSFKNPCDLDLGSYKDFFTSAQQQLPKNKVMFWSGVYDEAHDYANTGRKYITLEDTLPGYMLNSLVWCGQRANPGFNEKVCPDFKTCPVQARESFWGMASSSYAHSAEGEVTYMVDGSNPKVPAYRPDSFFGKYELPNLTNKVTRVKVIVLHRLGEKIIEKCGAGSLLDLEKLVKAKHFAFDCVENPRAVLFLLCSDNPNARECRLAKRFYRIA
# Protocol: as §1, §2
# [3] = tested on: DRG neurons; experiment: Base exchange products in DRG explant cultures (metabolite extraction, HPLC); format: cell-based, mouse; conditions: 4 h; for SARM1 dependence of base exchange product formation: wild-type vs Sarm1^−/− DRG cultures
# Protocol: Dorsal Root Ganglia (DRG) were dissected from C57BL/6J (RRID IMSR_JAX:000664) or Sarm1^-/- (RRID MGI_3765957) E13.5-E14.5 mouse embryos. Explants were cultured in 35 mm tissue culture dishes pre-coated with poly-L-lysine (20 μg/ml for 1 h; Merck) and laminin (20 μg/ml for 1 h; Merck) in Dulbecco's Modified Eagle's Medium (DMEM, Gibco) with 1 % penicillin/streptomycin (Thermo Fisher Scientific), 33 ng/ml 2.5S NGF (Thermo Fisher Scientific) and 2% B27 (Gibco). 4 μM aphidicolin (Merck) was used to reduce proliferation and viability of small numbers of non-neuronal cells ([Loreto and Gilley, 2020]).
# Wild-type and Sarm1^−/− DRG neurons were treated at DIV7 with 3-acetylpyridine (AcPyr) or vehicle (H2O), or with vacor or vehicle (H2O with 4% 1 N HCl). Proper drug concentrations and times of collection were determined first by dedicated experiments (see Figure 5A). At the indicated time-point, wild-type and Sarm1^−/− DRG whole explant cultures (typically 30-60 ganglia per condition) were collected, washed in ice-cold PBS and rapidly frozen in dry ice, and stored at −80°C until processed. Next extraction was carried out as reported by grinding in liquid N2, resuspending in HClO4 containing cAMP as internal standard for recovery calculations, sonicating, and neutralizing with K2CO3 ([Mori et al., 2014]). Next HPLC analyses to detect and measure the base exchange formed products, i.e. AcPyrAD or the vacorylated compound VAD, were carried out as described above in the paragraph “NADase assays”. In all samples, recovery yields from spiked cAMP were at least 96%. Furthermore, pellets after extraction of soluble nucleotides were treated as reported ([Mori et al., 2014]) to get reference protein contents to normalize the nucleotide levels. Protein concentrations were determined using the Bradford Reagent (Merck).
# [4] = NAD […] alone or + AcPyr 2 mM / Vacor 0.5 mM / Na 2 mM
# [5] = NADP […] alone or + AcPyr 2 mM / Vacor 0.5 mM / Na 2 mM
Compound,"rate [1, 4] [mU/mg]","rate [1, 5] [mU/mg]","rate [2, 4] [mU/mg]","rate [2, 5] [mU/mg]","AcPyrAD formed ([3]; wild-type DRGs, AcPyr 250 μM)",SARM1 dependence of base exchange product formation [3],"VAD formed ([3]; wild-type DRGs, vacor 50 μM) [nmol/mg]"
"CC(=O)c1cccnc1 [AcPyr, 3-acetylpyridine]",427.3 ±76.5,261.7 ±60.9,13996 ±624,15779 ±5215,0.446 ± 0.021 nmol per mg of protein,not in treated Sarm1^−/− cultures,–
"O=C(NCc1cccnc1)Nc1ccc([N+](=O)[O-])cc1 [Vacor, 1-(4-nitrophenyl)-3-(pyridin-3-ylmethyl)urea]",284.8 ±51.1,266.0 ±54.1,12748 ±2593,8132 ±2201,–,found only in wild-type DRGs,~0.14
